# Tests used:
# [1] = system: control sera (pooled serum of ten healthy LUMC hospital workers; commercial negative donor pooled serum from the Dutch bloodbank); type: binding, human; set-up: Binding of Control serum LUMC to linear peptides / Binding of Control serum Blood-bank to linear peptides / Binding of Control serum LUMC to looped peptides / Binding of Control Serum Blood-Bank to Looped peptides / Binding of Control serum LUMC to linear peptides of the protein M of SARS-CoV Urbani / Binding of Control serum Blood-bank to linear peptides of the protein M of SARS-CoV Urbani / Binding of Control serum LUMC to looped peptides of the protein M of SARS-CoV Urbani / Binding of Control Serum Blood-Bank to Looped peptides of the protein M of SARS-CoV Urbani: unit not given here
# [2] = system: antibodies in sera from SARS patients (sera 1a, 1b, 2, 6, 37, 62, London, SARS-yellow, SARS-green); type: binding, human; set-up: Binding of serum 6 to linear peptides of protein X1 of SARS-CoV Urbani / Binding of serum 37 to linear peptides of protein X1 of SARS-CoV Urbani / Binding of serum 6 to looped/cyclic peptide (PEPSCAN-ELISA) / Binding of serum 37 to looped/cyclic peptide (PEPSCAN-ELISA) / Binding of serum 37 to looped/cyclic peptides of protein X1 of SARS-CoV Urbani / Binding of serum 6 to linear peptides of protein X2 / Binding of serum 37 to linear peptides of protein X2 / Binding of serum 37 to looped/cyclic peptides of protein X2 of SARS-CoV Urbani / Binding of serum 6 to linear peptides of protein M of SARS-CoV Urbani / Binding of serum 37 to linear peptides of protein M of SARS-CoV Urbani / Binding of serum 6 to looped/cyclic peptides of protein M of SARS-CoV Urbani / Binding of serum 37 to looped/cyclic peptides of protein M of SARS-CoV Urbani / Binding of serum 6 to linear peptides of protein X3 of SARS-CoV Urbani / Binding of serum 37 to linear peptides of protein X3 of SARS-CoV Urbani / Binding of serum 37 to looped/cyclic peptides of protein X3 of SARS-CoV Urbani / Binding of serum 6 to linear peptides of protein X4 of SARS-CoV Urbani / Binding of serum 37 to linear peptides of protein X4 of SARS-CoV Urbani / Binding of serum 37 to looped/cyclic peptides of protein X4 of SARS-CoV Urbani / Binding of serum 6 to linear peptides of protein X5 of SARS-CoV Urbani / Binding of serum 37 to linear peptides of protein X5 of SARS-CoV Urbani / Binding of serum 37 to looped/cyclic peptides of protein X5 of SARS-CoV Urbani / Binding of serum 6 to linear peptides of protein N of SARS-CoV Urbani / Binding of serum 37 to linear peptides of protein N of SARS-CoV Urbani / Binding of serum 6 to linear peptide (PEPSCAN-ELISA) / Binding of serum 1a to looped/cyclic peptides of protein N of SARS-CoV Urbani / Binding of serum 1b to looped/cyclic peptides of protein N of SARS-CoV Urbani / Binding of serum 2 to looped/cyclic peptides of protein N of SARS-CoV Urbani / Binding of serum 6 to looped/cyclic peptides of protein N of SARS-CoV Urbani / Binding of serum 37 to looped/cyclic peptides of protein N of SARS-CoV Urbani / Binding of serum 62 to looped/cyclic peptides of protein N of SARS-CoV Urbani / Binding of serum London to looped/cyclic peptides of protein N of SARS-CoV Urbani / Binding of serum SARS-green to looped/cyclic peptides of protein N of SARS-CoV Urbani: unit not given here
# [3] = system: recombinant human anti-SARS-CoV antibody 03-018; type: binding; set-up: Binding of antibody 03-018 to linear peptides of the N protein of SARS-CoV Urbani / Binding of antibody 03-018 to looped/cyclic peptides of the N protein of SARS-CoV Urbani: unit not given here
# [4] = system: rabbit serum obtained by immunizing a rabbit with the SARS-CoV strain Frankfurt 1; type: binding; set-up: Binding of a rabbit serum to linear peptides / Binding of a rabbit serum to looped peptides / Rabbit serum linear peptides / Rabbit serum looped peptides / Binding of a rabbit serum to linear peptides of protein N of SARS-CoV Urbani (Rabbit serum linear peptides) / Binding of a rabbit serum to looped/cyclic peptides of protein N of SARS-CoV Urbani (Rabbit serum looped peptides): unit not given here
Sequence,Binding of Control Serum Blood-Bank to Looped peptides [1],Binding of Control serum Blood-bank to linear peptides [1],Binding of Control serum LUMC to linear peptides [1],Binding of Control serum LUMC to looped peptides [1],Binding of serum 1a to linear peptides of protein N of SARS-CoV Urbani [2],Binding of serum 1a to looped/cyclic peptides of protein N of SARS-CoV Urbani [2],Binding of serum 1b to linear peptides of protein N of SARS-CoV Urbani [2],Binding of serum 1b to looped/cyclic peptides of protein N of SARS-CoV Urbani [2],Binding of serum 2 to linear peptides of protein N of SARS-CoV Urbani [2],Binding of serum 2 to looped/cyclic peptides of protein N of SARS-CoV Urbani [2],Binding of serum 6 to looped/cyclic peptides of protein N of SARS-CoV Urbani [2],Binding of serum 37 to looped/cyclic peptides of protein N of SARS-CoV Urbani [2],Binding of serum 62 to looped/cyclic peptides of protein N of SARS-CoV Urbani [2],Binding of serum London to looped/cyclic peptides of protein N of SARS-CoV Urbani [2],Binding of serum SARS-green to looped/cyclic peptides of protein N of SARS-CoV Urbani [2],Binding of serum SARS-yellow to looped/cyclic peptides of protein N of SARS-CoV Urbani [2],Binding of antibody 03-018 to linear peptides of the N protein of SARS-CoV Urbani [3],Binding of antibody 03-018 to looped/cyclic peptides of the N protein of SARS-CoV Urbani [3],Binding of a rabbit serum to linear peptides of protein N of SARS-CoV Urbani (Rabbit serum linear peptides) [4],Binding of a rabbit serum to looped/cyclic peptides of protein N of SARS-CoV Urbani (Rabbit serum looped peptides) [4],other results
LNTPKDHIGTRNPNN,0.5,0.8,0.6,0.6,0.2,0.4,0.1,0.3,0.3,0.4,0.3,0.6,0.5,0.5,0.4,0.4,0.1,0.2,0.2,0.0,Binding of serum 6 to linear peptides of protein N of SARS-CoV Urbani [2]: 0.2; Binding of serum 37 to linear peptides of protein N of SARS-CoV Urbani [2]: 0.7; Binding of serum 62 to linear peptides of protein N of SARS-CoV Urbani [2]: 0.6; Binding of serum London to linear peptides of protein N of SARS-CoV Urbani [2]: 0.5; Binding of serum SARS-green to linear peptides of protein N of SARS-CoV Urbani [2]: 0.2; Binding of serum SARS-yellow to linear peptides of protein N of SARS-CoV Urbani [2]: 0.6
LPAADMDDFSRQLQN,,,,,0.2,0.3,0.2,0.2,0.4,0.5,0.4,0.6,0.4,0.3,0.5,0.6,0.1,0.2,0.2,0.2,Control Serum Blood-Bank Looped peptides [1]: 0.4; Control serum Blood-bank linear peptides [1]: 0.7; Control serum LUMC linear peptides [1]: 0.7; Control serum LUMC looped peptides [1]: 0.4; Binding of serum 6 to linear peptides of protein N of SARS-CoV Urbani [2]: 0.3; Binding of serum 37 to linear peptides of protein N of SARS-CoV Urbani [2]: 0.7; Binding of serum 62 to linear peptides of protein N of SARS-CoV Urbani [2]: 0.6; Binding of serum London to linear peptides of protein N of SARS-CoV Urbani [2]: 0.5; Binding of serum SARS-green to linear peptides of protein N of SARS-CoV Urbani [2]: 0.2; Binding of serum SARS-yellow to linear peptides of protein N of SARS-CoV Urbani [2]: 0.6
LPKGFYAEGSRGGSQ,0.6,0.6,0.6,0.5,,0.3,,0.2,,0.3,0.2,0.5,0.4,0.4,0.3,0.2,0.1,0.2,0.1,0.1,Binding of serum 1a to linear peptide (PEPSCAN-ELISA) [2]: 0.2; Binding of serum 1b to linear peptide (PEPSCAN-ELISA) [2]: 0.1; Binding of serum 2 to linear peptide (PEPSCAN-ELISA) [2]: 0.2; Binding of serum 6 to linear peptide (PEPSCAN-ELISA) [2]: 0.1; Binding of serum 37 to linear peptide (PEPSCAN-ELISA) [2]: 0.6; Binding of serum 62 to linear peptide (PEPSCAN-ELISA) [2]: 0.6; Binding of serum London to linear peptide (PEPSCAN-ELISA) [2]: 0.4; Binding of serum SARS-green to linear peptide (PEPSCAN-ELISA) [2]: 0.2; Binding of serum SARS-yellow to linear peptide (PEPSCAN-ELISA) [2]: 0.5
LPNNTASWFTALTQH,0.8,0.7,0.7,0.7,0.2,0.4,0.1,0.3,0.2,0.4,0.3,0.8,0.7,0.3,0.7,0.7,0.1,0.3,0.1,0.6,Binding of serum 6 to linear peptides of protein N of SARS-CoV Urbani [2]: 0.1; Binding of serum 37 to linear peptides of protein N of SARS-CoV Urbani [2]: 0.7; Binding of serum 62 to linear peptides of protein N of SARS-CoV Urbani [2]: 0.7; Binding of serum London to linear peptides of protein N of SARS-CoV Urbani [2]: 0.4; Binding of serum SARS-green to linear peptides of protein N of SARS-CoV Urbani [2]: 0.3; Binding of serum SARS-yellow to linear peptides of protein N of SARS-CoV Urbani [2]: 0.5

# — patent US20070128217A1 (priority 2003, published 2007)
